In US10759762B2, “Fluorescent synthetic retinoids” (High Force Research Limited, priority 2014, dated 2020):

Legend:
[1] = system: TERA-2 cells; test: Flow cytometry, stem cell marker TRA160; type: cell-based; details: for expression of TRA160 compared to DMSO treated cells: flow cytometry
[2] = system: cell populations; test: Phase contrast images of treated cell populations; type: cell-based
Excerpt: In cell populations treated with DMSO, the cells are small, and densely packed together.

[3] = background statement; cited from earlier work
[4] = system: cells; test: MTT cell viability analysis; type: cell-based; details: compared to DMSO
[5] = system: TERA-2 cells; test: Immunocytochemical staining for Sox 2; type: cell-based; details: 1 and 10 μM
[6] = system: TERA-2 cells; test: Immunocytochemical staining for cytokeratin 8 (CK8); type: cell-based; details: 10 μM vs 1 μM
[7] = system: TERA-2 cells; test: Immunocytochemical staining for Oct 4; type: cell-based
[8] = background statement; cited from earlier work; remark: listed apart in the source
[9] = system: TERA-2 cells; test: Immunocytochemical staining for TUJ-1; type: cell-based; details: for TUJ-1 staining: 1 and 10 μM
Excerpt: DMSO treated cells show only limited TUJ-1 staining.

[10] = system: TERA-2 cells; test: Immunocytochemical staining for nestin; type: cell-based
[11] = system: TERA-2 cells; test: Flow cytometry, stem cell marker SSEA-3; type: cell-based; details: for expression of SSEA-3 compared to DMSO treated cells: flow cytometry
[12] = system: TERA-2 cells; test: Flow cytometry, early neuronal marker A2B5; type: cell-based
Excerpt: ATRA treated cells express higher levels of A2B5 followed by EC23® and compound 9.

[13] = Stability on exposure to light of wavelength 300 to 400 nm; type: physicochemical; details: 3 days exposure to light of wavelength 300 to 400 nm
Excerpt: Retinoid compounds such as ATRA are unstable upon storage. In particular, such compounds are susceptible to photoisomerisation and degradation upon exposure to light in the 300 to 400 nm region. […] Generally the compounds of formula 1 have far better stability than retinoids such as ATRA, in particular the compounds of formula 1 are far less susceptible to photoisomerisation. Generally, following 3 days exposure to light having a wavelength of 300 to 400 nm, the compounds of the present invention undergo far less isomerisation and degradation than ATRA. Typically at least 60% by weight of the compounds of the present invention remain (compared to less than 40% by weight ATRA) following 3 days exposure to light of wavelength 300 to 400 nm.

[14] = Initial fluorescence characterisation (absorption and emission spectra in solvents); type: physicochemical
Excerpt: Absorption and emission spectra of 9 were obtained in a variety of solvents (FIG. 3 and FIG. 4). […] The fluorescence emission wavelength is also highly dependent on solvent polarity, with a significant red shift occurring in polar solvents when compared to non polar solvents.
This absorption band peaks at around 379 nm, and trails into the indigo/blue (440 nm).

[15] = Light stability of compound 9 by 1H NMR under standard laboratory light; type: physicochemical
Experimental: A ^1H NMR spectrum of compound 9 in DMSO-d6 was recorded after storage at ambient temperature in the absence of light (FIG. 7). The same sample of compound 9 was then exposed to standard laboratory light at a distance of 30 cm for 72 hours, and the ^1H NMR spectrum recorded (FIG. 8). Compound 9 is stable towards typical laboratory lighting over this time period, although a small proportion converts to a structurally similar enamine form. Compound 9 remains stable until around 16 day's exposure, where some indication of degradation becomes apparent. More significant degradation is observed after 22 day's exposure, although compound 9 still represents the major constituent of the sample (>60%).

[16] = 1 M treatment (so in the source)
[17] = both 1 and 10 M treatments (so in the source)

Structure (SMILES) | expression of TRA160 compared to DMSO treated cells [1] | cell population appearance in contrast to DMSO (small, densely packed) [2] | MTT cell viability ([4]; 1 μM treatment) | MTT cell viability ([4]; 10 μM treatment) | Sox 2 staining compared to DMSO treated cells [5] | CK8 staining intensity in 10 μM samples compared with 1 μM samples [6] | Oct 4 staining ([7]; 1 μM) | Oct 4 staining ([7]; 10 μM) | stability on exposure to light [8] | TUJ-1 staining with 10 μM treatment relative to 1 μM [9] | TUJ-1 staining [9] | nestin staining ([10]; 10 μM treatment) | nestin staining [10, 16] | expression of SSEA-3 compared to DMSO treated cells [11] | expression of A2B5 compared to DMSO treated cells [12] | also measured
CC1(C)CCC(C)(C)c2cc(C#Cc3ccc(C(=O)O)cc3)ccc21 [EC23®] | significantly decreased | less dense, and cells are much more spread out | comparable viability to DMSO | comparable viability to DMSO | significantly reduced staining | less intense | do not exhibit staining | do not exhibit staining | good stability | increased staining | significant staining | positive for nestin with staining possibly to a lesser extent | positive for nestin | significantly decreased | significantly increased | susceptibility to metabolic degradation [3]: not be susceptible
CC1=C(/C=C/C(C)=C/C=C/C(C)=C/C(=O)O)C(C)(C)CCC1 [ATRA, All Trans-Retinoic Acid] | significantly decreased | less dense, and cells are much more spread out | comparable viability to DMSO | comparable viability to DMSO | significantly reduced staining | less intense | staining is also evident | do not exhibit staining | poor stability | increased staining | significant staining | positive for nestin | positive for nestin | significantly decreased | significantly increased | amount of compound remaining [13]: less than 40 % by weight; level of A2B5 relative to the other retinoids [12]: higher levels
CC1=CC(C)(C)c2cc(C#Cc3ccc(C(=O)O)cc3)ccc2N1C(C)C [compound 17, 4-2-[2,4,4-Trimethyl-1-(propan-2-yl)-1,4-dihydroquinolin-6-yl]ethynyl benzoic acid] | – | – | – | – | – | – | – | – | – | – | – | – | – | – | – | peak of maximal absorption band ([14]; chloroform (FIG. 5)): around 379 nm
CC(C)N1CCC(C)(C)c2cc(C#Cc3ccc(C(=O)O)cc3)ccc21 [compound 9, 4-2-[4,4-Dimethyl-1-(propan-2-yl)-1,2,3,4-tetrahydroquinolin-6-yl]ethynylbenzoic acid] | significantly decreased | less dense, and cells are much more spread out | comparable viability to DMSO | comparable viability to DMSO | significantly reduced staining | slightly brighter | do not exhibit staining | do not exhibit staining | – | increased staining | significant staining | positive for nestin with staining possibly to a lesser extent | positive for nestin | significantly decreased | significantly increased | level of TRA160 relative to ATRA and EC23 [1, 17]: slightly higher levels; exposure time until which compound remains stable (first indication of degradation) ([15]; DMSO-d6, standard laboratory light): around 16 day; stability towards typical laboratory lighting ([15]; DMSO-d6, standard laboratory light at 30 cm, 72 hours, ambient temperature): stable; share of the sample still compound 9 (major constituent) ([15]; after 22 day's exposure to laboratory light): > 60%; lowest concentration at which fluorescence was easily detected ([14]; in solvents): 1 nM; level of SSEA-3 relative to ATRA and EC23 [11, 17]: higher levels
